Test systems include M14 melanoma; SNB-19 CNS; OVCAR-3 ovarian; SK-OV-3 ovarian; RPMI-8226 leukemia; SK-MEL-2 melanoma; SF-539 CNS; CAKI-1 renal; SF-295 CNS; SNB-75 CNS.
Common to all, as to assay: DTP human tumour cell line panel, 48 h

Values joined by “and” are separate entries in the source; they are usually repeats but may differ in a detail not shown here. Identical values can stand only once.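 Cells were grown in 96-well plates and exposed to each compound for 48 hours at five concentrations; endpoints were interpolated linearly between bracketing concentrations, or set to the highest concentration if not reached. Abbreviation: GI50, concentration required for 50% inhibition of growth. TGI marks complete inhibition of growth.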 Where only a bound is given, the exact number is not on record here.

Regarding `O=c1oc2cc(OC/C(=N/O)c3ccc(F)cc3)ccc2c2ccccc12`, the GI50 in the assay with M14 melanoma was 19200 nM; in the assay with SNB-19 CNS, 21800 nM; with OVCAR-3 ovarian, 17.6 µM; in the assay on SK-OV-3 ovarian it was 24 µM; with RPMI-8226 leukemia, 31800 nM; with SK-MEL-2 melanoma, 21300 nM. The GI50 with SF-539 CNS is 20100 nM; with CAKI-1 renal, 13100 nM; with SF-295 CNS, 18400 nM; in the assay on SNB-75 CNS, 23700 nM. Also, the TGI is 33.7 µM in the assay with M14 melanoma; 46.3 µM with SNB-19 CNS; 40.6 µM in the assay with OVCAR-3 ovarian; 41.3 µM in the assay with SK-OV-3 ovarian; more than 100 µM in the assay on RPMI-8226 leukemia; 40 µM in the assay on SK-MEL-2 melanoma. Also, the total growth inhibition concentration (TGI) in the assay on SF-539 CNS came to 36.4 µM; with CAKI-1 renal it was 33.4 µM; in the assay with SF-295 CNS, 41.5 µM; in the assay with SNB-75 CNS it was 43.9 µM.

Regarding `CCCCc1c2cnccc2c(CCCC)c2c1[nH]c1ccccc12`, the TGI with M14 melanoma worked out at 41.1 µM; in the assay on SNB-19 CNS it was 22.1 µM; in the assay with OVCAR-3 ovarian, 19.6 µM; in the assay on SK-OV-3 ovarian it was 42.2 µM; in the assay on RPMI-8226 leukemia, 17.6 µM; in the assay on SK-MEL-2 melanoma, 30.5 µM. Moreover, the TGI was 12.6 µM with SF-539 CNS, 30.2 µM in the assay with CAKI-1 renal, 20.2 µM with SF-295 CNS and 23.6 µM with SNB-75 CNS.

With `C[C@]12CC[C@H]3[C@@H](CC4SC(N)=NC45C/C(=N/NC(N)=O)CC[C@]35C)[C@@H]1CCC2=O` (stereo not given in full), the GI50 in the assay on M14 melanoma is 1940 nM; in the assay on SNB-19 CNS, 1870 nM; in the assay on OVCAR-3 ovarian, 1.87 µM; in the assay on SK-OV-3 ovarian it was 6.21 µM; in the assay on RPMI-8226 leukemia, 300 nM; in the assay on SK-MEL-2 melanoma, 1980 nM. For the same molecule, the GI50 in the assay with SF-539 CNS is 2050 nM; with CAKI-1 renal, 1770 nM; with SF-295 CNS, 1610 nM; with SNB-75 CNS it was 1580 nM. The TGI stood at 3.77 µM in the assay on M14 melanoma; 3.62 µM in the assay on SNB-19 CNS; 3.44 µM in the assay on OVCAR-3 ovarian; 22.3 µM with SK-OV-3 ovarian; 1.37 µM in the assay on RPMI-8226 leukemia; 4.58 µM in the assay on SK-MEL-2 melanoma. Besides, the TGI in the assay on SF-539 CNS stood at 5.23 µM; with CAKI-1 renal, 3.64 µM; in the assay on SF-295 CNS it was 3.03 µM; in the assay with SNB-75 CNS, 3.5 µM.

For the molecule `Cc1ccc(S(=O)(=O)c2ccc(C)cc2[N+](=O)[O-])cc1`, the TGI in the assay on M14 melanoma, in the assay on SNB-19 CNS, in the assay on OVCAR-3 ovarian, in the assay on SK-OV-3 ovarian, with RPMI-8226 leukemia and in the assay with SK-MEL-2 melanoma was more than 100 µM throughout. Further, the TGI in the assay on SF-539 CNS, in the assay with CAKI-1 renal, with SF-295 CNS and in the assay with SNB-75 CNS was more than 100 µM in each case.

In the case of `COc1ccc2oc(-c3ccc(OC)c(OC)c3OC)cc(=O)c2c1`, the concentration for total growth inhibition (TGI) is more than 100 µM with M14 melanoma; more than 100 µM in the assay on SNB-19 CNS; more than 100 µM in the assay on OVCAR-3 ovarian; more than 100 µM in the assay with SK-OV-3 ovarian; 43 µM in the assay on RPMI-8226 leukemia; more than 100 µM in the assay on SK-MEL-2 melanoma. In addition, the TGI with SF-539 CNS, with CAKI-1 renal, in the assay on SF-295 CNS and in the assay with SNB-75 CNS was more than 100 µM each time.

In the case of `O=CN1N=C(c2cccc(Nc3ccnc4cc(Cl)ccc34)c2)CC1c1ccccc1` (stereo not given), the GI50 in the assay with M14 melanoma is 284 nM; in the assay with SNB-19 CNS, 585 nM; with OVCAR-3 ovarian, 0.269 µM; in the assay with SK-OV-3 ovarian it was 0.363 µM; in the assay with RPMI-8226 leukemia, 471 nM; in the assay with SK-MEL-2 melanoma it was 258 nM. The GI50 is 370 nM in the assay on SF-539 CNS, 348 nM in the assay on CAKI-1 renal, 306 nM with SF-295 CNS and 191 nM in the assay on SNB-75 CNS. Besides, the TGI in the assay with M14 melanoma was 6.75 µM; in the assay with SNB-19 CNS, more than 100 µM; in the assay on OVCAR-3 ovarian it was 0.774 µM; in the assay on SK-OV-3 ovarian, 14.3 µM; with RPMI-8226 leukemia it was 4.51 µM; in the assay with SK-MEL-2 melanoma, 0.825 µM. Further, the TGI in the assay on SF-539 CNS turned out to be 2.49 µM; in the assay with CAKI-1 renal, 7.54 µM; with SF-295 CNS, 1.66 µM; in the assay on SNB-75 CNS it was 1.83 µM.

Take `COC1CCC(OC)C(C2(C3CC(OC)CCC3OC)OC(=O)c3ccccc32)C1` (stereo not given): the TGI in the assay on M14 melanoma, with SNB-19 CNS, with OVCAR-3 ovarian, in the assay on SK-OV-3 ovarian, in the assay with RPMI-8226 leukemia and with SK-MEL-2 melanoma was more than 100 µM throughout. Moreover, the TGI in the assay with SF-539 CNS, with CAKI-1 renal, in the assay with SF-295 CNS and in the assay with SNB-75 CNS was more than 100 µM in each case.

As for `CCCCCCCCCCCCCCCCOP(=O)([O-])OCC[N+](C)(C)C`, the GI50 is 1560 nM in the assay on M14 melanoma; 1210 nM in the assay on SNB-19 CNS; 3.74 µM in the assay on OVCAR-3 ovarian; 1.2 µM in the assay with SK-OV-3 ovarian; 390 nM in the assay with RPMI-8226 leukemia; 2360 nM in the assay on SK-MEL-2 melanoma. In addition, the values for the GI50 in the assay with SF-539 CNS, in the assay with CAKI-1 renal and in the assay on SNB-75 CNS were 2340 nM, 931 nM and 1430 nM, respectively. The TGI in the assay on OVCAR-3 ovarian is 14.8 µM and 48.4 µM; in the assay with SK-OV-3 ovarian, 9.4 µM and 57.1 µM; in the assay on SK-MEL-2 melanoma it was 7.05 µM and 46.9 µM; in the assay on SF-539 CNS it was 5.86 µM and 52.9 µM; in the assay with CAKI-1 renal, 2.99 µM and 27.7 µM; in the assay with SF-295 CNS, 53 µM.

`Clc1ccc2nc(CI)c(CI)nc2c1`: the GI50 with M14 melanoma is 3160 nM; in the assay with SNB-19 CNS it was 33200 nM; in the assay on OVCAR-3 ovarian, 3.02 µM; in the assay with SK-OV-3 ovarian, 23.1 µM; in the assay with RPMI-8226 leukemia it was 2620 nM; in the assay on SK-MEL-2 melanoma it was 6450 nM. For the same molecule, the GI50 with SF-539 CNS is 2460 nM; with CAKI-1 renal, 9560 nM; in the assay on SF-295 CNS, 15400 nM; with SNB-75 CNS, 8870 nM. Further, the TGI with M14 melanoma was more than 19.8 µM; in the assay with SNB-19 CNS, more than 59.4 µM; in the assay on OVCAR-3 ovarian it was 7.14 µM; with SK-OV-3 ovarian, more than 58 µM; in the assay on RPMI-8226 leukemia, 8.25 µM; in the assay with SK-MEL-2 melanoma, more than 32.6 µM. Moreover, the TGI in the assay with SF-539 CNS was 6.31 µM; with CAKI-1 renal it was 24.9 µM; in the assay on SF-295 CNS, 36.8 µM; in the assay with SNB-75 CNS, 23.2 µM.

With `Cn1nc(C(F)(F)F)c(-c2cc(C(F)(F)F)cc(C(F)(F)F)c2)c1-c1ccc(OCc2ccc(Cl)cc2)cc1O`, the GI50 with M14 melanoma was 2070 nM; in the assay with SNB-19 CNS, 2780 nM; in the assay on OVCAR-3 ovarian, 2.27 µM; with SK-OV-3 ovarian, 2.82 µM; in the assay on RPMI-8226 leukemia, 2260 nM; with SK-MEL-2 melanoma, 1730 nM. Besides, the GI50 is 2100 nM in the assay on SF-539 CNS, 2110 nM with CAKI-1 renal, 2310 nM in the assay on SF-295 CNS and 2170 nM in the assay on SNB-75 CNS. Also, the TGI with M14 melanoma is 5.27 µM; in the assay on SNB-19 CNS it was 14.8 µM; with OVCAR-3 ovarian it was 10.7 µM; in the assay with SK-OV-3 ovarian, 10.1 µM; in the assay on RPMI-8226 leukemia, 7.22 µM; with SK-MEL-2 melanoma, 4.09 µM. Also, the TGI was determined as 5.94 µM with SF-539 CNS, 5.9 µM with CAKI-1 renal, 7.3 µM in the assay on SF-295 CNS and 10.5 µM in the assay with SNB-75 CNS.

`COc1cc(OC)c(OC)cc1/C=C/c1cnnc2ccccc12`: the TGI in the assay with M14 melanoma, with SNB-19 CNS, with OVCAR-3 ovarian, with SK-OV-3 ovarian, with RPMI-8226 leukemia and with SK-MEL-2 melanoma was more than 10 µM each time. The TGI in the assay on SF-539 CNS, in the assay with CAKI-1 renal, in the assay on SF-295 CNS and in the assay with SNB-75 CNS was more than 10 µM in each case.

Regarding `COc1cc(NS(C)(=O)=O)ccc1NCc1c2ccccc2nc2ccccc12`, the TGI is more than 100 µM with M14 melanoma; more than 100 µM with SNB-19 CNS; more than 100 µM in the assay with OVCAR-3 ovarian; more than 100 µM in the assay with SK-OV-3 ovarian; 71.1 µM in the assay on RPMI-8226 leukemia; more than 100 µM in the assay with SK-MEL-2 melanoma. The TGI in the assay with SF-539 CNS was 65.2 µM; in the assay on CAKI-1 renal, more than 100 µM; with SF-295 CNS, more than 100 µM; with SNB-75 CNS it was more than 100 µM.

Consider `CC(C)=CC(=O)N[C@H]1CC[C@]2(C)C3CC[C@]4(C)C(C(C)N(C)C)=CCC4C3CCC2[C@H]1O` (stereo not given in full), for which the GI50 was 1920 nM with M14 melanoma; 14800 nM with SNB-19 CNS; 4.12 µM with OVCAR-3 ovarian; 12.1 µM in the assay on SK-OV-3 ovarian; 2410 nM with RPMI-8226 leukemia; 12400 nM in the assay with SK-MEL-2 melanoma. Moreover, the GI50 in the assay on SF-539 CNS was 1590 nM; in the assay with CAKI-1 renal it was 5630 nM; in the assay on SF-295 CNS, 2640 nM; with SNB-75 CNS it was 8760 nM. Besides, the TGI came to 3.74 µM in the assay on M14 melanoma; 28.1 µM with SNB-19 CNS; 15.7 µM with OVCAR-3 ovarian; 24.6 µM in the assay on SK-OV-3 ovarian; 9.3 µM in the assay on RPMI-8226 leukemia; 28.7 µM in the assay on SK-MEL-2 melanoma. Moreover, the TGI was found to be 3.38 µM in the assay with SF-539 CNS, 14.7 µM in the assay on CAKI-1 renal, 9.07 µM in the assay with SF-295 CNS and 21.8 µM in the assay with SNB-75 CNS.

The GI50 is the concentration at which growth is held to half of that of the control. In general, TGI refers to the concentration at which net growth stops. A high value points to lower sensitivity of the cells.

(Values after PubChem BioAssay (NCI).)
